Source: patent publication EP4620955A1, “MC4R ANTAGONIST COMPOUND, PHARMACEUTICAL COMPOSITION AND PHARMACEUTICAL USE THEREOF” (Changchun Genescience Pharmaceutical Co., Ltd., priority 2022, dated 2024)

Experiments:
MC4R = biological target: T1, MC4R (Homo sapiens, UniProt P32245); assay: Assay of MC4R antagonist activity in cells in vitro (cAMP assay, Melanotan I stimulation); assay type: cell-based; details: flipin-293-MC4 cell line, Melanotan I as agonist
T1 construct: expressed in transfected cells; host or cells: flipin-293-MC4 (Flp-In 293 host, hygromycin selection)
T1 sequence (P32245 whole entry): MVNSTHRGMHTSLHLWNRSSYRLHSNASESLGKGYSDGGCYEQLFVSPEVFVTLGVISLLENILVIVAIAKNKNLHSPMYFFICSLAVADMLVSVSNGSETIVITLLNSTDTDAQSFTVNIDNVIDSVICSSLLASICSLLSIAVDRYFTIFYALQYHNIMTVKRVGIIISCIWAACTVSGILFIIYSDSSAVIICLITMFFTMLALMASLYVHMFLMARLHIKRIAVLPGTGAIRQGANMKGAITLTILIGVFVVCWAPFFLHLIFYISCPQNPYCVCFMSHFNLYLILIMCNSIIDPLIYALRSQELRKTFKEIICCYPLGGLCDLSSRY
In short: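 flipin-293-MC4 cells in HBSS, 20 mM HEPES, 0.1% BSA, 500 µM IBMX were preincubated with compound for 10 min at 37°C, then stimulated with Melanotan I for 30 min at 37°C. cAMP measured by TR-FRET (Eu cAMP tracer/ULight anti-cAMP, 615/665 nm). Percent inhibition versus controls fitted to a four-parameter curve for IC50.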

[1] = Pharmacokinetic study on the tested compound in SD male rats; assay type: in vivo; details: IV 1 mpk/PO 2 mpk
Procedure: On the day of administration, the tested compound was prepared with 5% DMSO + 5% Solutol + 90% Saline as a solvent into a solution for administration for use.
The solution for administration was administered to an intravenous injection IV group at a dose of 1 mg/kg in a concentration of 0.2 mg/mL. The solution for administration was administered to an oral gavage PO group at a dose of 2 mg/kg in a concentration of 0.2 mg/mL. The animals in the PO group were required to fast overnight in advance, drink water freely, and be fed 4 hours after administration. The IV group was not required to fast.
The animals were weighed before administration. On the day of administration, the solution was IV/PO-administered once in an administration amount calculated based on the weight. In the IV group, blood was collected from veins at 0.083 h, 0.25 h, 0.5 h, 1.0 h, 2.0 h, 4.0 h, 8.0 h, and 24 h after administration. In the PO group, blood was collected from veins at 0.25 h, 0.5 h, 1.0 h, 2.0 h, 4.0 h, 6.0 h, 8.0 h, and 24 h after administration. The amount of blood collected was about 0.20 mL. K2-EDTA was used in blood collection tubes as an anticoagulant. The collected blood sample was centrifuged (centrifugation conditions: 6800 g, 6 min, 2°C to 8°C) within 1 h to obtain plasma. The to-be-tested sample was stored in a refrigerator at -80°C before analysis.
The concentration of the tested compound in the plasma of the SD male rats was detected by the validated LC-MS/MS method.

CYP 3A4M = biological target: T2, CYP 3A4M (Homo sapiens, UniProt P08684); assay: Inhibition of P450 enzyme (CYP 3A4, midazolam as substrate) in human liver microsomes; assay type: in vitro ADME; details: human liver microsomes 0.100 mg/mL, midazolam 5.00 µM as substrate, 5 min incubation; read-out: CYP 3A4M IC50
T2 construct: from tissue; host or cells: human liver microsomes (HLM)
T2 sequence (P08684 whole entry): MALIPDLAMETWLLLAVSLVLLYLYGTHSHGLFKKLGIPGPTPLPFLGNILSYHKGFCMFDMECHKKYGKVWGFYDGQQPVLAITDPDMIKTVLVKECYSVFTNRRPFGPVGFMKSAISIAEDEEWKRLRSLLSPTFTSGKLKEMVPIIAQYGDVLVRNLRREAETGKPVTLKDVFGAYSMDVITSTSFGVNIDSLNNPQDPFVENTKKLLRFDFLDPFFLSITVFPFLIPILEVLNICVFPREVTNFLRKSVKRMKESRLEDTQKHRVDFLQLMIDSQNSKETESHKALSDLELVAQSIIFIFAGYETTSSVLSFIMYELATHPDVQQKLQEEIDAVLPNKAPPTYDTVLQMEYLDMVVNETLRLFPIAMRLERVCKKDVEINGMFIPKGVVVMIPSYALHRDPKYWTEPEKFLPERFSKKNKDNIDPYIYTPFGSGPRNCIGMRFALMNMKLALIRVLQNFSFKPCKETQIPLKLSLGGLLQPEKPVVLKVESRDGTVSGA
Procedure: The inhibitory effect of the tested compound on 3A4-M (with midazolam as a substrate) in human liver microsomes is evaluated in vitro to assess the safety of the compound.
In this study, the inhibition of CYP 3A4 enzyme in human liver microsomes by the tested compound was investigated using the human liver microsomal system and the cytochrome P450 enzyme probe substrate recommended by the FDA Guidance for In Vitro Drug Interaction Studies. The human liver microsomes were incubated separately with the tested compound of different concentrations (0 µM to 30.0 µM) and corresponding probe substrates. Then, the changes of activity of the CYP enzyme were determined, and the IC50 value was calculated, to evaluate the inhibitory potential of the tested compound on the CYP 3A4 enzyme.
Test group (TG): The human liver microsomes were incubated separately with the tested compound of different concentrations, NADPH (in a final concentration of 2.00 mM), and probe substrates (Table 4) of different enzymes in subfamilies for 5 min.
Positive control group (PC): The human liver microsomes were incubated separately with an inhibitor (Table 4), NADPH (in a final concentration of 2.00 mM), and a probe substrate (Table 4) of 3A4M for 5 min. Table 4 Probe substrate of each enzyme in the subfamily, inhibitor, and incubation system
At the end of the incubation, the reaction was terminated with a stop solution.
8 µL of 30 mM test sample was transferred to 12 µL of DMSO to give a 12 mM test sample intermediate solution, and then diluted with DMSO to give test sample working solutions in different concentrations (12 mM, 4 mM, 1.33 mM, 0.433 mM, 0.147 mM, 0.049 mM, and 0.0164 mM).
To 12 µL of DMSO was added 8 µL of 2.5 mM CYP3A4 inhibitor ketoconazole stock solution to give a 1 mM positive control inhibitor working solution.
(§1) 199 µL of 0.2 mg/mL HLM and 1 µL of test sample working solution (12 mM, 4 mM, 1.33 mM, 0.433 mM, 0.147 mM, 0.049 mM, and 0.0164 mM) were mixed uniformly. 30 µL of this liver microsome solution was added to a 96-well plate, and then 10 µL of substrate working solution (320 µM testosterone or 20 µM midazolam) was added. This preparation process was carried out in duplicate. After pre-incubation at 37°C for 5 min, 15 µL of 8 mM NADPH solution pre-warmed at 37°C for 5-10 min was added to initiate the reaction. After incubation in the 96-well plate at 37°C for 5 min, 180 µL of acetonitrile/methanol (ACN:MeOH = 1:1) solution containing the internal standard (IS) was added to terminate the reaction. The 96-well plate was shaken at 600 rpm for 5-10 min, and then centrifuged at 6000 rpm for 15 min. 80 µL of supernatant was taken and added to 120 µL of ultrapure water, shaken uniformly, and then detected by LC-MS/MS.
as §1, with “1 mM positive control inhibitor (ketoconazole)” for “test sample”, “solution” for “solution (12 mM, 4 mM, 1.33 mM, 0.433 mM, 0.147 mM, 0.049 mM, and 0.0164 mM)”, “(20” for “(320 µM testosterone or 20”, “ACN:MeOH (1:1)” for “acetonitrile/methanol (ACN:MeOH = 1:1)”, “IS” for “the internal standard (IS)”, “LC-MS/MS. […]” for “LC-MS/MS.”

[2] = Sprague-Dawley (SD), rat, plasma

Compound `COc1cc([C@@H](C)C(=O)N2C[C@@H](Nc3ccc(-c4ncccn4)c(C)n3)C3(CC3)C2)c(Cl)cn1` [Compound 114, (R)-2-(5-chloro-2-methoxypyridine-4-yl)-1-((S)-7-((6-methyl-5-(pyrimidine-2-yl)pyridine-2-yl)amino)-5-azaspiro[2.4]heptane-5-yl)propan-1-one] has an IC50 (MC4R) of 0.00245 µM, an F [1] of 54.0% and an AUC [1, 2] of 450 ng·h/mL. The Cmax [1, 2] was 197 ng/mL, the clearance [1, 2] was 39.9 mL/min/kg and the half-life [1, 2] was 58.8 min. It also gave an IC50 (CYP 3A4M) of 29.5 µM.
